The source of these data is paper PMC5391016 (PLoS ONE, 2017).

The experiment deals with T1, Epac1-camps-PDE4A1.
T1 construct: gene RAPGEF3
Particulars: read-out: pEC50 5.56 ± 0.08 (converted); 10 mM Tris, 10 mM MgCl2; apparent affinity; PDE catalytically impaired.

Turning to `Nc1ncnc2c1ncn2[C@@H]1O[C@@H]2COP(=O)(O)O[C@H]2[C@H]1O` [cAMP], the EC50 was 2700 nM.
